Experimental data from patent US5010090A, “N-(butenyl substituted) azaheterocyclic carboxylic acids” (Novo Nordisk A/S., priority 1985, dated 1991).

Experiments:
[1] = tested on: GABA uptake; test: GABA-uptake inhibition in vitro, essentially as described by Fjalland, 3H-GABA as substrate; format: biochemical; settings: two separate experiments, 3-5 concentrations, 3H-GABA substrate (25 mM [sic])
Procedure: GABA-uptake inhibition was measured essentially as described by Fjalland (Acta Pharmacol. et. Toxicol. (1978), 42, 73-76) using 25 mM of 3H-GABA as a substrate. The results obtained appears from Table 4, the obtained values being from two separate experiments using 3-5 different concentrations of test compound.

[2] = tested on: DMCM induced clonic convulsions; test: Inhibition of DMCM induced convulsions in vivo; settings: Mus musculus, ip, 0.5 h; 50% inhibition of DMCM induced clonic convulsions; i.p. 30 min before 15 mg/kg DMCM i.p.; female NMRI mice
Procedure: Inhibition of DMCM induced convulsions was measured on female NMRI mice (20±2 g).
The test compounds were injected intraperitoneally 30 min. before an intraperitoneal injection of 15 mg/kg of DMCM.

[3] = tested on: GABA uptake; settings: literature; cited from earlier work

| IC50 [1] [nM] | SMILES | ED50 [2] [mg/kg] | inhibition of GABA uptake [3] |
| --- | --- | --- | --- |
| 96 | O=C(O)C1CCCN(CCC=C(c2sccc2Br)c2sccc2Br)C1 (stereo not shown) [Compound 8, N-(4,4-Bis(3-bromothien-2-yl)but-3-enyl)nipecotic acid] |  |  |
|  | CCOC(=O)[C@@H]1CCCN(CCC=C(c2sccc2C)c2sccc2C)C1 [Example 23, R-N-(4,4-bis(3-methylthien-2-yl)but-3-enyl)-nipecotic acid ethyl ester] | 2.5 |  |
| 69 | Cc1ccsc1C(=CCCN1CCC(CC(=O)O)C1)c1sccc1C (stereo not drawn) [Compound 7, N-(4,4-Bis(3-methylthien-2-yl)but-3-enyl)-β-homoproline] |  |  |
|  | O=C(O)C1=CCCN(CCC=C(c2ccccc2)c2ccccc2)C1 [SK&F 100330A, N-(4,4-diphenyl-3-butenyl)guvacine] |  | active inhibitors of GABA uptake |
| 74 | Cc1ccsc1C(=CCCN1CCC[C@@H](C(=O)O)C1)c1sccc1C [Compound 6, R-N-(4,4-bis(3-methylthien-2-yl)but-3-enyl)-nipecotic acid] | 1.2 |  |
| 72 | Cc1ccsc1C(=CCCN1CCC(CC(=O)O)C1)c1cccs1 (stereo not shown) [Compound 4] |  |  |
| 87 | Cc1ccsc1C(=CCCN1CCCC(C(=O)O)C1)c1sccc1C (stereo not shown) [Compound 5, N-(4,4-Bis(3-methylthien-2-yl)but-3-enyl)nipecotic acid] |  |  |
| 134 | Cc1ccsc1C(=CCCN1CCC=C(C(=O)O)C1)c1cccs1 [Compound 3, N-(4-(3-Methylthien-2yl)-4-(thien-2-yl)but-3-enyl)guvacine] |  |  |
| 92 | Cc1ccsc1C(=CCCN1CCCC(C(=O)O)C1)c1cccs1 (stereo not shown) [Compound 1, N-(4-(3-Methylthien-2-yl)-4-(thien-2-yl)but-3-enyl)nipecotic acid] |  |  |
| 52 | Cn1cccc1C(=CCCN1CCCC(C(=O)O)C1)c1cccn1C (stereo not shown) [Compound 2, N-(4,4-Bis(N-methylpyrrol-2-yl)but-3-enyl)nipecotic acid] |  |  |
| 465 | O=C(O)C1CCCN(CCC=C(c2ccccc2)c2cccs2)C1 (stereo not shown) [Compound 9, N-(4-phenyl-4-(2-thienyl)-3-butenyl)nipecotic acid, reference compound] |  | active inhibitors of GABA uptake |
| 353 | O=C(O)C1CCCN(CCC=C(c2ccccc2)c2ccccc2)C1 (stereo not shown) [Compound 10, N-(4,4-diphenyl-3-butenyl)nipecotic acid, reference compound] |  | active inhibitors of GABA uptake |
|  | O=C(O)CC1CCN(CCC=C(c2ccccc2)c2ccccc2)C1 (stereo not drawn) [SK&F 100561, N-(4,4-diphenyl-3-butenyl)-β-homoproline] |  | active inhibitors of GABA uptake |
